Source: the supplement of paper PMC10331698
± gives the standard deviation of the averaged measurements.

Key:
Test in all cases: level (log10 ratio to DMSO vehicle control); higher = higher biomarker level / cell amount than vehicle control
Conditions in all cases: in DMSO
[1] = compound: CCN(CCO)S(=O)(=O)C(F)(F)C(F)(F)C(F)(F)C(F)(F)C(F)(F)C(F)(F)C(F)(F)C(F)(F)F [N-Ethyl-N-(2-hydroxyethyl)perfluorooctanesulfonamide]
Experimental: (§1)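 BioMAP Diversity Plus panel of 12 human primary cell co-culture systems (3C, 4H, LPS, SAg, BT, BF4T, BE3C, CASM3C, HDF3CGF, KF3CT, MyoF, Mphg). Compounds were added 1 h before stimulation and left for 24 h (MyoF 48 h; BT 72 h for soluble read-outs or 6 d for IgG). Biomarkers were read by ELISA, cytotoxicity by SRB, PBMC viability and proliferation by Alamar Blue. Each well value was divided by the mean of 8 DMSO control wells on the same plate and log10 transformed; duplicate blinded samples were tested at 4 concentrations.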

[2] = compound: COC(=O)CCC(F)(F)C(F)(F)C(F)(F)C(F)(F)F [Methyl 2H,2H,3H,3H-perfluoroheptanoate]
Experimental: as §1

[3] = compound: FC(F)(F)C(F)(F)C(F)(F)C(F)(F)C(F)(F)C(F)(F)C(F)(F)C(F)(F)CCS [2-(Perfluorooctyl)ethanthiol]
Experimental: as §1

[4] = compound: FC(F)(F)C(F)(F)C(F)(F)C(F)(F)C(F)(F)CCI [1-Iodo-1H,1H,2H,2H-perfluoroheptane]
Experimental: as §1

[5] = compound: NCC(F)(F)C(F)(F)C(F)(F)C(F)(F)C(F)(F)C(F)(F)C(F)(F)F [1H,1H-Perfluorooctylamine]
Experimental: as §1

[6] = compound: O=C(O)C(F)(F)C(F)(F)C(F)(F)C(F)(F)C(F)(F)C(F)(F)C(F)(F)C(F)F [9-H-Perfluorononanoic acid]
Experimental: as §1

[7] = compound: OCCC(F)(F)C(F)(F)C(F)(F)C(F)(F)C(F)(F)C(F)(F)F [6:2 Fluorotelomer alcohol]
Experimental: as §1

Test System	level (log10) ([1]; 6700 nM)	level (log10) ([1]; 20000 nM)	level (log10) ([2]; 6700 nM)	level (log10) ([2]; 20000 nM)	level (log10) ([2]; 60000 nM)	level (log10) ([3]; 6700 nM)	level (log10) ([3]; 20000 nM)	level (log10) ([4]; 6700 nM)	level (log10) ([4]; 20000 nM)	level (log10) ([4]; 60000 nM)	level (log10) ([5]; 6700 nM)	level (log10) ([5]; 20000 nM)	level (log10) ([5]; 60000 nM)	level (log10) ([6]; 6700 nM)	level (log10) ([6]; 20000 nM)	level (log10) ([6]; 60000 nM)	level (log10) ([7]; 6700 nM)	level (log10) ([7]; 20000 nM)
CASM3C:CD142/Tissue Factor	-0.0325 ± 0.012	0.0145 ± 0.022	-0.021 ± 0.027	0.001 ± 0.013	0.015 ± 0.017	-0.0015 ± 0.13	-0.0415 ± 0.07	0.001 ± 0.0085	-0.0065 ± 0.005	-0.0295 ± 0.028	-0.018 ± 0.0014	-0.0135 ± 0.015	0.021 ± 0.03	-0.0025 ± 0.0078	-0.012 ± 0.028	0.006 ± 0.017	0.004 ± 0.014	0.0075 ± 0.0064
HDF3CGF:SRB	-0.127 ± 0.011	-0.153 ± 0.084	0.0005 ± 0.005	-0.001 ± 0.057	0.0735 ± 0.091	0.0135 ± 0.023	0.011 ± 0.0085	0.0335 ± 0.036	0.0065 ± 0.023	-0.052 ± 0.033	-0.0315 ± 0.0078	0.0335 ± 0.046	0.0315 ± 0.12	0.022 ± 0.023	0.0825 ± 0.03	0.148 ± 0.034	-0.0245 ± 0.073	0.008 ± 0.054
KF3CT:CXCL10/IP-10	-0.0395 ± 0.022	-0.107 ± 0.015	0.005 ± 0.02	-0.003 ± 0.0014	-0.005 ± 0.0014	-0.025 ± 0.0042	-0.01 ± 0.0057	0.0035 ± 0.00071	0.001 ± 0.013	-0.0185 ± 0.00071	-0.0045 ± 0.00071	-0.0075 ± 0.011	-0.003	-0.0155 ± 0.0021	-0.0265 ± 0.0064	-0.039 ± 0.0099	0.0105 ± 0.0092	0.006 ± 0.014
lMphg:SRB	-0.0215 ± 0.0078	-0.0435 ± 0.022	-0.008 ± 0.02	-0.016 ± 0.0057	-0.0095 ± 0.023	-0.008 ± 0.0014	-0.011 ± 0.013	0.006 ± 0.013	-0.011 ± 0.0014	-0.001 ± 0.0057	-0.008 ± 0.0085	0.001 ± 0.0042	-0.002 ± 0.0099	0.0005 ± 0.00071	0.002 ± 0.0057	-0.0115 ± 0.005	-0.014 ± 0.017	-0.0125 ± 0.0021
lMphg:CCL2/MCP-1	0.007 ± 0.034	0.002 ± 0.023	-0.004 ± 0.0085	-0.011 ± 0.011	0.003 ± 0.031	-0.0125 ± 0.0078	-0.003 ± 0.02	-0.005 ± 0.021	-0.027 ± 0.016	-0.037 ± 0.0071	-0.03 ± 0.0099	-0.0245 ± 0.016	-0.0275 ± 0.04	-0.0085 ± 0.0021	-0.0215 ± 0.013	0.014 ± 0.04	-0.019 ± 0.0042	-0.025 ± 0.016
HDF3CGF:CD106/VCAM-1	-0.0825 ± 0.046	-0.173 ± 0.11	-0.0395 ± 0.033	-0.0135 ± 0.053	-0.0235 ± 0.066	-0.0255 ± 0.0064	-0.0555 ± 0.059	-0.0335 ± 0.019	-0.102 ± 0.033	-0.429 ± 0.011	-0.0015 ± 0.0078	-0.0445 ± 0.074	-0.08 ± 0.095	-0.041 ± 0.018	-0.064 ± 0.013	-0.066 ± 0.013	-0.0175 ± 0.063	-0.0145 ± 0.042
lMphg:CXCL8/IL-8	-0.047 ± 0.048	-0.032 ± 0.016	-0.0045 ± 0.018	-0.0025 ± 0.0064	-0.0005 ± 0.018	-0.012 ± 0.016	0.008 ± 0.016	0.005 ± 0.0057	-0.01 ± 0.0099	0.0495 ± 0.025	0.008 ± 0.031	0.018 ± 0.025	0.01 ± 0.013	0.033 ± 0.021	0.0415 ± 0.019	0.112 ± 0.0014	-0.0115 ± 0.056	-0.0125 ± 0.018
KF3CT:CCL2/MCP-1	-0.0205 ± 0.0078	-0.102 ± 0.019	-0.0185 ± 0.035	-0.0515 ± 0.026	0.013 ± 0.048	-0.0125 ± 0.011	-0.0285 ± 0.0092	0.0005 ± 0.015	-0.034 ± 0.028	-0.0465 ± 0.064	-0.0055 ± 0.043	-0.021 ± 0.013	0.0045 ± 0.0078	-0.04 ± 0.0028	-0.0335 ± 0.0078	0.009 ± 0.065	-0.015 ± 0.038	-0.016 ± 0.041
